The target of series [1] is CHK-1 kinase (Homo sapiens (Human), UniProt O14757). The series is described as follows: CHK-1 % inhibition kinase assay (TR-FRET). Conditions: ATP 15 μM; for inhibition at 0.03 µM / inhibition at 0.3 µM: CHK1 enzyme; for inhibition at 0.03 µM: compound 30 nM; for inhibition at 0.3 µM: compound 300 nM; for IC50: TR-FRET, read-out: CHK1 IC50. The series is classed as biochemical. The procedure: Inhibition of CHK-1 kinase or percent inhibition at defined concentrations was determined by TR-FRET assay. Kinase reactions were performed in a 20 μL volume in low-volume 384-well plates (Cat #Corning 4511). The concentration of substrate Fluorescein-CREBtide was maintained at 0.2 μM in the assay, and the kinase reaction buffer consisted of 50 mM HEPES pH 7.5, 0.01% BRIJ-35, 10 mM MgCl2, 1 mM EGTA. Serially diluted compounds (3-fold) in DMSO (0.5% in final reaction) were incubated with cocktail of CHK-1 kinase (6 nM; Cat #PR3959B, ThermoFisher), Fluorescein-CREBtide (0.2 μM; Cat #PV3508, ThermoFisher), ATP (15 μM; Cat #A1852, Sigma), and kinase reaction buffer. After 1 hour kinase reactions at room temperature, 10 μL of Detection mix (8 nM LanthaScreen® Tb-CREB [pSer133] antibody, Cat #PV3542, ThermoFisher with 20 mM EDTA in TR-FRET Buffer, Cat #PV3574, ThermoFisher) was added, and the plate was read with a plate reader (Synergy™ NEO; Biotek) for TR-FRET.
The resulting TR-FRET emission ratio was used to calculate the percent inhibition by normalizing to the control using the following formula: […]
(In TR-FRET formats the signal depends on donor and acceptor labels being close together.)

Series [2] is described as follows: Microsomal stability assay, human liver microsome. The format is in vitro ADME. The settings on record: liver microsomes, pH 7.4, 0.2 mg/mL, 1 μM compound, 37° C., read-out: Clint HLM. The procedure:
(§1) Incubation mixture contained 0.2 mg/mL microsomes, 1 mmol NADPH, and test compound at 1 μM in 100 mmol potassium phosphate buffer at pH 7.4. The mixtures were incubated at 37° C. for 5, 15, and 30 minutes. Aliquots of the mixtures were taken at 0, 5, 15 and 30 minutes and quenched with chilled Acetonitrile:Methanol (50:50) containing internal standard. Following completion of incubation, samples were centrifuged at 4,000 rpm at 4° C. The supernatant was analyzed by LC-MS/MS and half-life, as well as intrinsic clearance (Clint), were calculated.

Series [3] in a line: Kinetic solubility assay (nephelometry). The settings on record: PBS, 37 °C, pH 7.4, aqueous buffer, kinetic from dmso stock.
Experimental: Test articles were serially diluted in DMSO from concentration range of 10 mM to 0.078 mM in 96 well v-bottom dilution plate (#3363, Corning). 1 μL of test article from each well was transferred to 96 well flat bottom clear plates (#655101, Greiner) containing 99 μL of PBS at pH-7.4, which makes the test drug final concentration range from 100 μM to 0.78 μM. Samples were incubated for 1 hour at 37° C. followed by measurement of light scattering at 625 nm with a laser based micro plate Nephelometer (Nephlostar Plus, BMG Labtech). Solubility concentration (μM) was then calculated by segmental regression with Neplometer as Readout.
Series [4] in a line: Microsomal stability assay, mouse liver microsome. The settings on record: liver microsomes, pH 7.4, 0.2 mg/mL, 1 μM compound, 37° C., read-out: Clint MLM. The format is in vitro ADME. The procedure:
as §1
Background: Liver microsomes are a subcellular fraction often used to study metabolism.

Series [5] is described as follows: Microsomal stability assay, rat liver microsome. The format is in vitro ADME. Conditions: liver microsomes, pH 7.4, 0.2 mg/mL, 1 μM compound, 37° C., read-out: Clint RLM. The procedure: as §1

In brackets after ≈: the same amount, converted by molar mass.

In general, inhibition refers to the relative decrease from the control value, in per cent. A word on the IC50: it is the concentration at which inhibition is half-maximal. As usually defined, the kinetic solubility is the concentration staying in solution when a stock, usually in DMSO, is diluted into the medium.

CHK-1 kinase, sequence (O14757 whole entry): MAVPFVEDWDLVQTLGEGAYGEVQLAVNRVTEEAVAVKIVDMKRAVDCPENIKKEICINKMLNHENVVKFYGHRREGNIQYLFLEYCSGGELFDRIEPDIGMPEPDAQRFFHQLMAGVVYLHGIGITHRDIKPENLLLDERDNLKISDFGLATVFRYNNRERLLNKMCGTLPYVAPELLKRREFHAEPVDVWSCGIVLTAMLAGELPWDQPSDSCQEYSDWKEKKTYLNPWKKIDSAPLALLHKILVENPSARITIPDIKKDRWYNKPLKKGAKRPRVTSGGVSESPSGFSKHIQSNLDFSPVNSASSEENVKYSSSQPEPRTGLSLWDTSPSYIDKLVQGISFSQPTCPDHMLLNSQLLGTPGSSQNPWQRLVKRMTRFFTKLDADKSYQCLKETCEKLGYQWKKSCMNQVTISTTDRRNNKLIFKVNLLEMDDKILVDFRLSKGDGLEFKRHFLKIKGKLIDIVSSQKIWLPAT

With `N#Cc1cnc(Nc2cc(-c3cc4ccccc4cc3OCC3CCCNC3)[nH]n2)cn1` (stereo not drawn) [Compound 2.5, 5-(5-(3-(piperidin-3-ylmethoxy)naphthalen-2-yl)-1H-pyrazol-3-ylamino) pyrazine-2-carbonitrile], in series [1], the inhibition at 0.03 µM was 72%, the inhibition at 0.3 µM was 96% and the IC50 worked out at 4.36 nM. For the same molecule, the microsomal CLint at 1 μM in series [2] turned out to be 14 µL/min/mg. For the same molecule, the solubility (kinetic) at 1 h in series [3] was determined as 41.6 µM (≈ 17.7 µg/mL). For the same molecule, in series [4], the microsomal CLint at 1 μM was found to be 111 µL/min/mg. Moreover, in series [5], the microsomal CLint at 1 μM is 124 µL/min/mg.
As for `CC(C)N1CC(Oc2ccccc2-c2cc(Nc3cnc(C#N)cn3)no2)C1` [Compound 1.13, 5-(5-(2-(1-isopropylazetidin-3-yloxy)phenyl)isoxazol-3-ylamino) pyrazine-2-carbonitrile], the inhibition at 0.03 µM in series [1] was found to be 15%. Also, in series [1], the inhibition at 0.3 µM was 32%. Also, the microsomal CLint at 1 μM was found to be 86 µL/min/mg in series [2], 221 µL/min/mg in series [4] and 84 µL/min/mg in series [5]. The solubility (kinetic) at 1 h in series [3] stood at 11.9 µM (≈ 4.48 µg/mL).
With `N#Cc1cnc(Nc2cc(-c3cc4ccccc4cc3OCC3CNCCO3)[nH]n2)cn1` (stereo not drawn) [Compound 2.3, 5-(5-(3-(morpholin-2-ylmethoxy)naphthalen-2-yl)-1H-pyrazol-3-ylamino) pyrazine-2-carbonitrile], in series [1], the inhibition at 0.03 µM came to 41%, the inhibition at 0.3 µM was 81% and the IC50 amounted to 8.15 nM. In addition, the microsomal CLint at 1 μM in series [2] worked out at 26 µL/min/mg. This molecule came in with a solubility (kinetic) at 1 h in series [3] of 39.7 µM (≈ 17 µg/mL). In addition, the microsomal CLint at 1 μM in series [4] turned out to be 85 µL/min/mg. The microsomal CLint at 1 μM in series [5] was determined as 39 µL/min/mg.
`N#Cc1cnc(Nc2cc(-c3ccccc3OC3CC4(CNC4)C3)on2)cn1` [Compound 1.21, 5-(5-(2-(2-azaspiro[3.3]heptan-6-yloxy)phenyl)isoxazol-3-ylamino) pyrazine-2-carbonitrile]: the inhibition at 0.03 µM in series [1] came to 78.7%. Besides, the inhibition at 0.3 µM in series [1] came to 95.5%. Further, the results for the microsomal CLint at 1 μM in series [2], in series [4] and in series [5] were 20 µL/min/mg, 18 µL/min/mg and 37 µL/min/mg, respectively. The kinetic solubility at 1 h in series [3] is 18.8 µM (≈ 7.04 µg/mL).
Take `N#Cc1cnc(Nc2cc(-c3ccccc3OCC3CCNC3)on2)cn1` (stereo not drawn) [Compound 1.23, 5-(5-(2-(pyrrolidin-3-ylmethoxy)phenyl)isoxazol-3-ylamino) pyrazine-2-carbonitrile]: in series [1], the inhibition at 0.03 µM stood at 82%. The inhibition at 0.3 µM in series [1] came out at 99%. Also, the microsomal CLint at 1 μM turned out to be 37 µL/min/mg in series [2], 52 µL/min/mg in series [4] and 50 µL/min/mg in series [5]. In series [3], the kinetic solubility at 1 h came to 46.6 µM (≈ 16.9 µg/mL).
As for `N#Cc1cnc(Nc2cc(-c3ccccc3O[C@H]3CC[C@@H](N)CC3)on2)cn1` [Compound 1.15, 5-(5-(2-((1s,4s)-4-aminocyclohexyloxy)phenyl)isoxazol-3-ylamino) pyrazine-2-carbonitrile], the inhibition at 0.03 µM in series [1] was determined as 39%. Besides, the inhibition at 0.3 µM in series [1] was found to be 79%. Besides, the microsomal CLint at 1 μM in series [2] amounted to 12 µL/min/mg; in series [4], 25 µL/min/mg; in series [5], 33 µL/min/mg. This molecule also showed a kinetic solubility at 1 h in series [3] of 100 µM (≈ 37.6 µg/mL).
For `N#Cc1cnc(Nc2cc(-c3cc4ccccc4cc3OCCCN)[nH]n2)cn1` [Compound 2.7, 5-(5-(3-(3-aminopropoxy)naphthalen-2-yl)-1H-pyrazol-3-ylamino) pyrazine-2-carbonitrile], the inhibition at 0.03 µM in series [1] came out at 95%. Moreover, the inhibition at 0.3 µM in series [1] came out at 100%. Besides, the IC50 in series [1] was 0.933 nM. The values for the microsomal CLint at 1 μM in series [2], in series [4] and in series [5] were 6 µL/min/mg, 118 µL/min/mg and 44 µL/min/mg, respectively. The kinetic solubility at 1 h in series [3] amounted to 21.3 µM (≈ 8.21 µg/mL).
With `N#Cc1cnc(Nc2cc(-c3ccccc3OC3CCNC3)on2)cn1` (stereo not drawn) [Compound 1.14, 5-(5-(2-(pyrrolidin-3-yloxy)phenyl)isoxazol-3-ylamino) pyrazine-2-carbonitrile], the inhibition at 0.03 µM in series [1] came out at 37%. Moreover, the inhibition at 0.3 µM in series [1] was 60%. Besides, the values for the microsomal CLint at 1 μM in series [2], in series [4] and in series [5] were 34 µL/min/mg, 56 µL/min/mg and 23 µL/min/mg, respectively. For the same molecule, the kinetic solubility at 1 h in series [3] amounted to 39.6 µM (≈ 13.8 µg/mL).
Regarding `CCC(C)N1CC(Oc2ccccc2-c2cc(Nc3cnc(C#N)cn3)no2)C1` (stereo not drawn) [Compound 1.18, 5-(5-(2-(1-sec-butyl-azetidin-3-yloxy)phen-yl)isoxazol-3-ylamino)-pyrazine-2-carbonitrile], in series [1], the inhibition at 0.03 µM was found to be 4%. The inhibition at 0.3 µM in series [1] came out at 28%. The microsomal CLint at 1 μM in series [2] worked out at 145 µL/min/mg; in series [4], 297 µL/min/mg; in series [5] it was 130 µL/min/mg. Further, the solubility (kinetic) at 1 h in series [3] came to 48 µM (≈ 18.7 µg/mL).
In the case of `N#Cc1cnc(Nc2cc(-c3ccccc3OCCCN)on2)cn1` [Compound 1.5, 5-(5-(2-(3-aminopropoxy)phenyl)isoxazol-3-ylamino) pyrazine-2-carbonitrile], in series [1], the inhibition at 0.03 µM came out at 63%, the inhibition at 0.3 µM amounted to 89% and the concentration for half-maximal inhibition (IC50) was 7.82 nM. For the same molecule, the microsomal CLint at 1 μM in series [2] is 78 µL/min/mg. The same molecule yielded a solubility (kinetic) at 1 h in series [3] of 41.8 µM (≈ 14.1 µg/mL). For the same molecule, the microsomal CLint at 1 μM in series [4] turned out to be 77 µL/min/mg. In addition, in series [5], the microsomal CLint at 1 μM was found to be 70 µL/min/mg.
As to `CN1CC(Oc2ccccc2-c2cc(Nc3cnc(C#N)cn3)no2)C1` [Compound 1.10, 5-(5-(2-(1-methylazetidin-3-yloxy)phenyl)isoxazol-3-ylamino) pyrazine-2-carbonitrile], in series [1], the inhibition at 0.03 µM came out at 44%. Further, the inhibition at 0.3 µM in series [1] was 65%. Besides, the microsomal CLint at 1 μM in series [2] was 80 µL/min/mg; in series [4], 243 µL/min/mg; in series [5] it was 49 µL/min/mg. For the same molecule, the kinetic solubility at 1 h in series [3] stood at 30.5 µM (≈ 10.6 µg/mL).
On to `N#Cc1cnc(Nc2cc(-c3ccccc3OCC3CNC3)on2)cn1` [Compound 1.17, 5-(5-(2-(azetidin-3-ylmethoxy)phenyl)isoxazol-3-ylamino) pyrazine-2-carbonitrile], for which, in series [1], the inhibition at 0.03 µM is 69%. For the same molecule, in series [1], the inhibition at 0.3 µM amounted to 95%. Besides, the microsomal CLint at 1 μM in series [2] worked out at 26 µL/min/mg; in series [4] it was 50 µL/min/mg; in series [5] it was 43 µL/min/mg. Besides, the solubility (kinetic) at 1 h in series [3] worked out at 48 µM (≈ 16.7 µg/mL).
With `COc1ccccc1-c1cc(Nc2cnc(C#N)cn2)no1` [Compound 1.11, 5-(5-(2-methoxyphenyl)isoxazol-3-ylamino) pyrazine-2-carbonitrile], in series [1], the inhibition at 0.03 µM was found to be 12%. Further, the inhibition at 0.3 µM in series [1] came to 36%. Besides, the microsomal CLint at 1 μM in series [2] was 140 µL/min/mg; in series [4], 382 µL/min/mg; in series [5], 79 µL/min/mg. In addition, in series [3], the solubility (kinetic) at 1 h turned out to be 14 µM (≈ 4.11 µg/mL).
Regarding `N#Cc1cnc(Nc2cc(-c3cc4ccccc4cc3OCC3CNC3)[nH]n2)cn1` [Compound 2.2, 5-(5-(3-(azetidine-3-ylmethoxy)naphthalen-2-yl)-1H-pyrazol-3-ylamino) pyrazine-2-carbonitrile], in series [1], the inhibition at 0.03 µM is 80%, the inhibition at 0.3 µM is 96% and the IC50 turned out to be 4.14 nM. In addition, the microsomal CLint at 1 μM in series [2] worked out at 21 µL/min/mg. In series [3], this molecule returned a solubility (kinetic) at 1 h of 41.8 µM (≈ 16.6 µg/mL). Further, in series [4], the microsomal CLint at 1 μM came out at 153 µL/min/mg. For the same molecule, the microsomal CLint at 1 μM in series [5] was determined as 45 µL/min/mg.
On to `CC(C)CC(C)N1CC(Oc2ccccc2-c2cc(Nc3cnc(C#N)cn3)no2)C1` (stereo not drawn) [Compound 1.12, 5-(5-(2-(1-(4-methylpentan-2-yl)azetidin-3-yloxy)phenyl)isoxazol-3-ylamino) pyrazine-2-carbonitrile], for which the inhibition at 0.03 µM in series [1] is 21%. For the same molecule, in series [1], the inhibition at 0.3 µM is 30%. Also, the microsomal CLint at 1 μM in series [2] was determined as 478 µL/min/mg; in series [4], 473 µL/min/mg; in series [5] it was 266 µL/min/mg. For the same molecule, the kinetic solubility at 1 h in series [3] came to 38.4 µM (≈ 16.1 µg/mL).
Consider `N#Cc1cnc(Nc2cc(-c3ccccc3OCCCCN)on2)cn1` [Compound 1.6, 5-(5-(2-(4-aminobutoxy)phenyl)isoxazol-3-ylamino) pyrazine-2-carbonitrile], for which the inhibition at 0.03 µM in series [1] stood at 71%. Besides, the inhibition at 0.3 µM in series [1] stood at 91%. In series [1], the IC50 was found to be 12.3 nM. Further, the values for the microsomal CLint at 1 μM in series [2], in series [4] and in series [5] were 63 µL/min/mg, 63 µL/min/mg and 118 µL/min/mg, respectively. In series [3], the kinetic solubility at 1 h is 42.8 µM (≈ 15 µg/mL).

Values taken from patent publication US20250346587A1, “NITROGEN-CONTAINING FIVE-MEMBERED HETEROCYCLIC DERIVATIVES AS CHECKPOINT KINASE 1 INHIBITOR AND USES THEREOF” (SPEROGENIX THERAPEUTICS LIMITED, priority 2022, published 2025).
